Assay results taken from ChEMBL document CHEMBL5523741, “Development of an Orally Bioavailable LCK PROTAC Degrader as a Potential Therapeutic Approach to T-Cell Acute Lymphoblastic Leukemia” (J Med Chem, 2024).
Values after ≈ are worked out from the molar mass of the structure shown. Active and inactive are the calls of the source. The calls are words filed in the database; no cut-off is given here.

Experiments:
[1] = test system: KOPTK1; assay: Downregulation of CISH in human KOPT-K1 cells measured for 6 hrs by tandem mass tag proteomic assay; format: functional, cell-based
[2] = test system: KOPTK1; assay: Antiproliferative activity against human KOPT-K1 cells assessed as inhibition of cell growth at 100 nM measured for 18 hrs by celltiter glo assay; format: functional, cell-based
[3] = Tmax in CD-1 mouse at 30 mg/kg, po measured up to 24 hrs; format: ADME, organism-based; conditions: in vivo
[4] = test system: KOPTK1; assay: Downregulation of GSPT1 in human KOPT-K1 cells measured for 6 hrs by tandem mass tag proteomic assay; format: functional, cell-based
[5] = biological target: T1, Protein cereblon/Tyrosine-protein kinase Lck (Homo sapiens, UniProt P06239+Q96SW2); assay: PROTAC activity at HiBit-tagged LCK/CRBN in human KOPT-K1 cells assessed as reduction in LCK level at 0.1 to 1000 nM incubated for 6 hrs immunoblotting analysis; format: cell-based; conditions: dose 0.1-1000 nM
Target sequence in this assay (P06239 2-509 limits assumed): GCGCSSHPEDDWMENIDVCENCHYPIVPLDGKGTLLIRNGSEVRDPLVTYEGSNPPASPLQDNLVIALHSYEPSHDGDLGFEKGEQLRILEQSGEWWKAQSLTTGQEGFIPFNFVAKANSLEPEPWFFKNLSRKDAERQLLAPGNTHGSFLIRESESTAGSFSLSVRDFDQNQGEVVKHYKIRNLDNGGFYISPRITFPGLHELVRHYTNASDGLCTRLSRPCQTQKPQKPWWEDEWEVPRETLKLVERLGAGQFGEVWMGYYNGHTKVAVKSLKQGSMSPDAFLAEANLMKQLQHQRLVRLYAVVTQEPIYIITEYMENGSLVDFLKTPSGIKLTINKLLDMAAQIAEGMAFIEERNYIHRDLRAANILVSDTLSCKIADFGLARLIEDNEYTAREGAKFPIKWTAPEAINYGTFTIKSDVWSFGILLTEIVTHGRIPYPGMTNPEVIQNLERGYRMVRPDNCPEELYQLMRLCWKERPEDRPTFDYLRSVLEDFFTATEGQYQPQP
Target sequence in this assay (Q96SW2 whole entry partner): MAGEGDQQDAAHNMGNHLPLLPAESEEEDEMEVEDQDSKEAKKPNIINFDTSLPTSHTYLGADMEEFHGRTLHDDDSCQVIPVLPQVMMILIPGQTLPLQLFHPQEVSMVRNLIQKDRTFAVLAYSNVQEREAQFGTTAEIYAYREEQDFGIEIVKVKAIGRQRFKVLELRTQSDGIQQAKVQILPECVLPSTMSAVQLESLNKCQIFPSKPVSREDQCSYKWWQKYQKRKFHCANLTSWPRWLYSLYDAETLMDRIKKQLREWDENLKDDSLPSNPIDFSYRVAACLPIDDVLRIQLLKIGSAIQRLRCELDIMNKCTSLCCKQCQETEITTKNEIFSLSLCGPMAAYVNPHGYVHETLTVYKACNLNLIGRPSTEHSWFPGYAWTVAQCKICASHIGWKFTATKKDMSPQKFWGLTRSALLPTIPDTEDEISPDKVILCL

[6] = biological target: T1, Protein cereblon/Tyrosine-protein kinase Lck; assay: PROTAC activity at HiBit-tagged LCK/CRBN in human KOPT-K1 cells assessed as induction of LCK degradation incubated for 6 hrs by Western blot analysis; format: cell-based
Target sequence in this assay (P06239 whole entry): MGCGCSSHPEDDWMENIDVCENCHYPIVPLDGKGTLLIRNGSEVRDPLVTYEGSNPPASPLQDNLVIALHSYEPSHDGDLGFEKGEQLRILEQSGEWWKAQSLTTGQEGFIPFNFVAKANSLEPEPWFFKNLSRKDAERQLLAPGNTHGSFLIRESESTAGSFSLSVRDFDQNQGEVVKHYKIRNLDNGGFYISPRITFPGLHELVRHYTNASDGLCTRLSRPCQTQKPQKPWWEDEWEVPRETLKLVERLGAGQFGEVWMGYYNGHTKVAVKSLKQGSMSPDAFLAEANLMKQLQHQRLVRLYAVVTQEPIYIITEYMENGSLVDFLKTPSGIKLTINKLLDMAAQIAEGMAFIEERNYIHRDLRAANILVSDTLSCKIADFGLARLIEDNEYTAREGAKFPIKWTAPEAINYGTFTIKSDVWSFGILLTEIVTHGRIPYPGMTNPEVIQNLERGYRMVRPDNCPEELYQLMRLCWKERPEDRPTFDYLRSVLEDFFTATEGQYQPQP
Target sequence in this assay (Q96SW2 whole entry): as the sequence (Q96SW2 whole entry partner) above

[7] = Clearance in CD-1 mouse at 30 mg/kg, po measured up to 24 hrs; format: ADME, organism-based; conditions: in vivo
[8] = test system: Mus musculus; assay: In-vivo PROTAC activity at LCK/CRBN in NOD Cg-Prkdc scid Il2rg tmIWjl (NSG) mouse model assessed as reduction in LCK level in Bone marrow at 30 mg/kg, po measured for 24 hrs by Western blot analysis; format: functional; parameters: scale not given: the % may be the effect or the level left
[9] = test system: KOPTK1; assay: Downregulation of IKZF3 in human KOPT-K1 cells measured for 6 hrs by tandem mass tag proteomic assay; format: functional, cell-based
[10] = Half life in CD-1 mouse at 3 mg/kg, iv measured up to 24 hrs; format: ADME, organism-based; conditions: in vivo
[11] = Cmax in CD-1 mouse at 30 mg/kg, po measured up to 24 hrs; format: ADME, organism-based; conditions: in vivo
[12] = Apparent permeability of compound across basolateral to apical side in human Caco-2 cells; format: ADME, cell-based
[13] = Volume of distribution at steady state in CD-1 mouse at 30 mg/kg, po measured up to 24 hrs; format: ADME, organism-based; conditions: in vivo
[14] = test system: KOPTK1; assay: Downregulation of CK1alpha in human KOPT-K1 cells measured for 6 hrs by tandem mass tag proteomic assay; format: functional, cell-based
[15] = test system: KOPTK1; assay: Downregulation of GAK in human KOPT-K1 cells measured for 6 hrs by tandem mass tag proteomic assay; format: functional, cell-based
[16] = Half life in CD-1 mouse at 30 mg/kg, po measured up to 24 hrs; format: ADME, organism-based; conditions: in vivo
[17] = test system: KOPTK1; assay: Downregulation of IKZF1 in human KOPT-K1 cells measured for 6 hrs by tandem mass tag proteomic assay; format: functional, cell-based
[18] = Efflux ratio of apparent permeability across basolateral to apical over apical to basolateral in human Caco-2 cells; format: ADME, cell-based
[19] = test system: KOPTK1; assay: Antiproliferative activity against human KOPT-K1 cells assessed as effect on cell viability measured for 72 hrs by celltiter glo assay; format: functional; conditions: read-out: LC50 (the source's name)
[20] = Cmax in CD-1 mouse at 3 mg/kg, iv measured up to 24 hrs; format: ADME, organism-based; conditions: in vivo
[21] = Oral bioavailability in CD-1 mouse at 30 mg/kg measured up to 24 hrs; format: ADME, organism-based; conditions: in vivo
[22] = AUClast in CD-1 mouse at 3 mg/kg, iv measured up to 24 hrs; format: ADME, organism-based; conditions: in vivo
[23] = Metabolic stability in mouse liver microsomes assessed as half life in presence of NADPH by UPLC-MS/MS analysis; format: ADME, Microsome
[24] = test system: KOPTK1; assay: Antiproliferative activity against human KOPT-K1 cells assessed as inhibition of cell growth at 100 nM measured for 280 hrs by celltiter glo assay; format: functional, cell-based
[25] = test system: KOPTK1; assay: Downregulation of SIK2 in human KOPT-K1 cells measured for 6 hrs by tandem mass tag proteomic assay; format: functional, cell-based
[26] = biological target: T1, Protein cereblon/Tyrosine-protein kinase Lck; assay: PROTAC activity at HiBit-tagged LCK/CRBN in human KOPT-K1 cells assessed as induction of LCK degradation incubated for 6 hrs by Nano-Glo HiBiT assay; format: cell-based
[27] = test system: KOPTK1; assay: Downregulation of CSK in human KOPT-K1 cells measured for 6 hrs by tandem mass tag proteomic assay; format: functional, cell-based
[28] = Volume of distribution at steady state in CD-1 mouse at 3 mg/kg, iv measured up to 24 hrs; format: ADME, organism-based; conditions: in vivo, read-out: Vdss
[29] = Stability in CD-1 mouse plasma assessed as half life; format: ADME, cell-free
[30] = test system: Mus musculus; assay: In-vivo PROTAC activity at LCK/CRBN in NOD Cg-Prkdc scid Il2rg tmIWjl (NSG) mouse model assessed as reduction in LCK level in Bone marrow at 30 mg/kg, po measured for 6 hrs by Western blot analysis; format: functional; parameters: scale not given: the % may be the effect or the level left
[31] = test system: KOPTK1; assay: Downregulation of EPHB1 in human KOPT-K1 cells measured for 6 hrs by tandem mass tag proteomic assay; format: functional, cell-based
[32] = biological target: T1, Protein cereblon/Tyrosine-protein kinase Lck; assay: PROTAC activity at HiBit-tagged LCK/CRBN in human KOPT-K1 cells assessed as induction of LCK degradation at 0.1 to 1000 nM incubated for 6 hrs by Western blot analysis relative to control; format: cell-based; conditions: dose 0.1-1000 nM
Target sequence in this assay (P06239 2-509 limits assumed): as the sequence (P06239 2-509 limits assumed) above
Target sequence in this assay (Q96SW2 whole entry partner): as the sequence (Q96SW2 whole entry partner) above

[33] = Clearance in CD-1 mouse at 3 mg/kg, iv measured up to 24 hrs; format: ADME, organism-based; conditions: in vivo
[34] = AUClast in CD-1 mouse at 30 mg/kg, po measured up to 24 hrs; format: ADME, organism-based; conditions: in vivo
[35] = Drug concentration in CD-1 mouse plasma at 30 mg/kg, po measured after 4 hrs by UPLC-MS/MS analysis; format: ADME, organism-based
[36] = test system: KOPTK1; assay: Downregulation of YES1 in human KOPT-K1 cells measured for 6 hrs by tandem mass tag proteomic assay; format: functional, cell-based
[37] = Apparent permeability of compound across apical to basolateral side in human Caco-2 cells; format: ADME, cell-based
[38] = biological target: T1, Protein cereblon/Tyrosine-protein kinase Lck; assay: PROTAC activity at HiBit-tagged LCK/CRBN in human KOPT-K1 cells assessed as induction of LCK degradation incubated for 6 hrs by Nano-Glo HiBiT assay relative to control; format: cell-based
Target sequence in this assay (P06239 2-509 limits assumed): as the sequence (P06239 2-509 limits assumed) above
Target sequence in this assay (Q96SW2 whole entry partner): as the sequence (Q96SW2 whole entry partner) above

[39] = Oral bioavailability in CD-1 mouse at 10 mg/kg measured up to 24 hrs by LC-MS/MS analysis; format: ADME, organism-based; conditions: in vivo
[40] = Clearance in CD-1 mouse at 3 mg/kg, iv measured up to 24 hrs by LC-MS/MS analysis; format: ADME, organism-based; conditions: in vivo
[41] = Aqueous solubility of the compound incubated for 18 hrs by UPLC-SQDMS; format: physicochemical; conditions: buffer

## Cc1nc(Nc2ncc(C(=O)Nc3c(C)cccc3Cl)s2)cc(N2CCC(CN3CCN(c4ccc(C5CCC(=O)NC5=O)cc4)CC3)CC2)n1 (stereo unspecified)
[1]
  Activity: Active
[2]
  Activity: Active
[3]
  Tmax: 1 h
[4]
  Activity: inactive
[5]
  Activity: Active
[6]
  DC50: 1.21 nM
[7]
  CL/F: 24 mL/min/kg
[8]
  Activity: 5%
[9]
  Activity: inactive
[10]
  half-life: 3.51 h
[11]
  Cmax: 2240 ng/mL
[12]
  Papp B→A: 1.13 ×10⁻⁶ cm/s
[13]
  Vdss: 6.34 L/kg
[14]
  Activity: inactive
[15]
  Activity: inactive
[16]
  half-life: 3.05 h
[17]
  Activity: inactive
[18]
  efflux ratio: 3.75
[19]
  CC50: 20.1 nM
[20]
  Cmax: 1450 ng/mL
[21]
  bioavailability: 58%
[22]
  AUC(0-t) at 24 h: 3560 ng·h/mL
[23]
  half-life: 2 h
[24]
  Activity: Active
[25]
  Activity: inactive
[26]
  DC50: 17.5 nM
[27]
  Activity: Active
[28]
  Vd: 3.51 L/kg
[29]
  half-life: 45.2 h
[30]
  Activity: 10%
[31]
  Activity: Active
[32]
  Emax: 98%
[33]
  clearance: 14 mL/min/kg
[34]
  AUC(0-t) at 24 h: 20700 ng·h/mL
[35]
  concentration at 4 h: 3290 ng/mL
[36]
  Activity: inactive
[37]
  Papp A→B: 0.302 ×10⁻⁶ cm/s
[38]
  Emax: 77%

## Cc1nc(Nc2ncc(C(=O)Nc3c(C)cccc3Cl)s2)cc(N2CCN(CCCN3CCN(Cc4ccc(C5CCC(=O)NC5=O)cc4)CC3)CC2)n1 (stereo unspecified)
[12]
  Papp B→A: 13.3 ×10⁻⁶ cm/s
[18]
  efflux ratio: 11.6
[39]
  bioavailability: 3.1%
[23]
  half-life: 10 h
[40]
  clearance: 169 mL/min/kg
[26]
  DC50: 4.48 nM
[41]
  solubility at 18 h: 7.54 µM (≈ 5.82 µg/mL)
[29]
  half-life: 30.1 h
[37]
  Papp A→B: 1.15 ×10⁻⁶ cm/s
[38]
  Emax: 84%

## Cc1nc(Nc2ncc(C(=O)Nc3c(C)cccc3Cl)s2)cc(N2CCN(CCCC(=O)N3CC4CC3CN4c3ccc(C4CCC(=O)NC4=O)cc3)CC2)n1 (stereo unspecified)
[23]
  half-life: 0.32 h
[41]
  solubility at 18 h: 0.19 µM (≈ 0.152 µg/mL)
[38]
  Emax: 90%

## Cc1nc(Nc2ncc(C(=O)Nc3c(C)cccc3Cl)s2)cc(N2CCN(CCN3CCN(c4ccc(C5CCC(=O)NC5=O)cc4)CC3)CC2)n1 (stereo unspecified)
[23]
  half-life: 4 h
[26]
  DC50: 53 nM
[41]
  solubility at 18 h: 1.87 µM (≈ 1.39 µg/mL)
[38]
  Emax: 62%

## Cc1nc(Nc2ncc(C(=O)Nc3c(C)cccc3Cl)s2)cc(N2CCC(N(C)C3CCN(c4ccc(C5CCC(=O)NC5=O)cc4)CC3)CC2)n1 (stereo unspecified)
[12]
  Papp B→A: 12.7 ×10⁻⁶ cm/s
[18]
  efflux ratio: 6.56
[23]
  half-life: 2.1 h
[29]
  half-life: 3.84 h
[35]
  concentration at 4 h: 207 ng/mL
[37]
  Papp A→B: 1.93 ×10⁻⁶ cm/s
[38]
  Emax: < 60%

## Cc1nc(Nc2ncc(C(=O)Nc3c(C)cccc3Cl)s2)cc(N2CCN(CCCN3CC4CC3CN4c3ccc(C4CCC(=O)NC4=O)cc3)CC2)n1 (stereo unspecified)
[23]
  half-life: 2.6 h
[41]
  solubility at 18 h: 14.5 µM (≈ 11.2 µg/mL)
[38]
  Emax: 83%

## Cc1nc(Nc2ncc(C(=O)Nc3c(C)cccc3Cl)s2)cc(N2CCN(CC3CCN(c4ccc(C5CCC(=O)NC5=O)cc4)CC3)CC2)n1 (stereo unspecified)
[23]
  half-life: 3.5 h
[38]
  Emax: < 60%

## Cc1nc(Nc2ncc(C(=O)Nc3c(C)cccc3Cl)s2)cc(N2CCC3(CCN(c4ccc(C5CCC(=O)NC5=O)cc4)CC3)CC2)n1 (stereo unspecified)
[23]
  half-life: 2.2 h
[38]
  Emax: < 60%

## Cc1nc(Nc2ncc(C(=O)Nc3c(C)cccc3Cl)s2)cc(N2CCC(CN3CCN(c4ccc(C5CCC(=O)N(C)C5=O)cc4)CC3)CC2)n1 (stereo unspecified)
[19]
  CC50: 1.98 nM
[26]
  Activity: inactive
